Holding throughout (type): cell-based
Test [1] deals with HeLa. The test can be described thus: Cytotoxicity against cancer cell lines (Example 5), Hela. To be noted: Tables 5-12. The procedure:
(§1) All of the compounds synthesized were tested against a number of cancer cell lines: Hela KB, Cos7, Molt4, K562, EU1, and T98G. The cancer cell lines vary from leukemia cell lines (Molt4, EU, K562) to solid-state tumor cell lines (Hela, KB, Cos7) and the drug resistant cell lines (T98G).

In test [2] the test system is Cos7. The experiment in a line: Cytotoxicity against cancer cell lines (Example 5), Cos7. To be noted: Tables 5-12. The procedure: as §1
For test [3], the system named is KB. The experiment in a line: Cytotoxicity against cancer cell lines (Example 5), KB. To be noted: Tables 5-12. The procedure: as §1
Test [4] relates to MOLT4. The experiment in a line: Cytotoxicity against cancer cell lines (Example 5), Molt4. Conditions: Tables 5-12; read-out: IC50 Molt4. The procedure: as §1
In test [5] the test system is EU1. The experiment in a line: Cytotoxicity against cancer cell lines (Example 5), EU1. Conditions: Tables 5-12. The procedure: as §1
The test system of test [6] is K562. The experiment in a line: Cytotoxicity against cancer cell lines (Example 5), K562. To be noted: Tables 5-12. As for the experimental part:
as §1

The subject of test [7] is T98G. The experiment in a line: Cytotoxicity against cancer cell lines (Example 5), T98G. Conditions: Tables 5-12; drug resistant cell line. The procedure: as §1

Bounds are passed on as bounds.

In the case of `[N-]=[N+]=NC(=O)c1cc(OCc2ccccc2)c2c(c1)C(=O)c1cccc(OCc3ccccc3)c1C2=O` [BW-AQ-149], the IC50 in test [1] is greater than 50 µM; in test [2], greater than 50 µM; in test [3] it was greater than 50 µM; in test [4] it was greater than 25 µM; in test [5], greater than 25 µM; in test [6], greater than 25 µM. In test [7], the IC50 is greater than 50 µM.
For `COc1cccc2c1C(=O)c1c(OC)cc(NC(=O)CN=[N+]=[N-])cc1C2=O` [BW-AQ-137], the 50% inhibitory concentration (IC50) in test [1] was 24.6 µM; in test [2] it was greater than 50 µM; in test [3], 23.6 µM; in test [4] it was greater than 1.6 µM; in test [6], greater than 6.25 µM; in test [7] it was greater than 50 µM.
As to `[N-]=[N+]=NCCOc1cccc2c1C(=O)c1c(OCCN=[N+]=[N-])cc(C(=O)N=[N+]=[N-])cc1C2=O` [BW-AQ-122], the IC50 in test [1] was greater than 12.5 µM; in test [2], greater than 50 µM; in test [3], greater than 50 µM; in test [4], greater than 1.6 µM; in test [6], greater than 6.25 µM; in test [7], greater than 12.5 µM.
Take `[N-]=[N+]=NCCOc1cccc2c1C(=O)c1c(OCCN=[N+]=[N-])cc(C(=O)O)cc1C2=O` [BW-AQ-121]: the IC50 was greater than 12.5 µM in test [1]; greater than 50 µM in test [2]; greater than 50 µM in test [3]; greater than 1.6 µM in test [4]; greater than 6.25 µM in test [6]; greater than 12.5 µM in test [7].
For `CCOc1cccc2c1C(=O)c1c(OCC)cc(NC(=O)COCc3ccccc3)cc1C2=O` [BW-AQ-182], the half-inhibitory concentration (IC50) in test [1] is 47.3 µM; in test [3] it was greater than 50 µM; in test [4] it was 16.8 µM; in test [5], 16.8 µM; in test [6] it was greater than 25 µM; in test [7], greater than 50 µM.
`Nc1cc(OCc2ccccc2)c2c(c1)C(=O)c1cccc(OCc3ccccc3)c1C2=O` [BW-AQ-150]: the IC50 is roughly 50 µM in test [1]; 17 µM in test [2]; greater than 50 µM in test [3]; greater than 25 µM in test [4]; greater than 25 µM in test [5]; greater than 25 µM in test [6]. Further, in test [7], the IC50 is greater than 50 µM.
For the molecule `COc1cccc2c1C(=O)c1c(OC)cc(NC(=O)COCc3ccccc3)cc1C2=O` [BW-AQ-175], the IC50 in test [1] was greater than 50 µM; in test [3], 33.6 µM; in test [4], 25 µM; in test [5], 20.5 µM; in test [6] it was greater than 25 µM; in test [7] it was greater than 50 µM.
For the molecule `CCOc1cccc2c1C(=O)c1c(OCC)cc(NC(=O)CNC)cc1C2=O` [BW-AQ-167], the IC50 in test [1] was 0.753 µM; in test [2] it was 5.51 µM; in test [3], 1.54 µM; in test [4], 21.5 µM; in test [5] it was 13.6 µM; in test [6], 2.05 µM. Besides, the IC50 in test [7] was 11.2 µM.
Turning to `CCOc1cccc2c1C(=O)c1c(OCC)cc(NC(=O)CN)cc1C2=O` [BW-AQ-166], the IC50 was 11 µM in test [1]; 18.8 µM in test [3]; greater than 25 µM in test [4]; greater than 25 µM in test [5]; greater than 25 µM in test [6]; 37.3 µM in test [7].
On to `[N-]=[N+]=NCCOc1cccc2c1C(=O)c1c(OCCN=[N+]=[N-])cc(N)cc1C2=O` [BW-AQ-123], for which the IC50 in test [1] is greater than 50 µM; in test [3], 20.5 µM; in test [4], greater than 1.6 µM; in test [6] it was greater than 6.25 µM; in test [7], greater than 12.5 µM.
In the case of `C=CC(=O)Nc1cc(OCC)c2c(c1)C(=O)c1cccc(OCC)c1C2=O` [BW-AQ-158], the IC50 in test [1] was 19.7 µM; in test [2] it was 8.42 µM; in test [3], 20.3 µM; in test [4], less than 3.2 µM; in test [5], 6 µM; in test [6] it was 10.7 µM. The same molecule registered an IC50 in test [7] of 21 µM.
Consider `C=CCOc1cccc2c1C(=O)c1c(OCC=C)cc(NC(=O)CI)cc1C2=O` [BW-AQ-163], for which the IC50 in test [1] is greater than 50 µM; in test [2], greater than 50 µM; in test [3], 14.7 µM; in test [4], greater than 25 µM; in test [5], greater than 25 µM; in test [6], greater than 25 µM. In test [7], this molecule registered an IC50 greater than 50 µM.
Turning to `CN1CCN(CC(=O)Nc2cc(O)c3c(c2)C(=O)c2cccc(O)c2C3=O)CC1` [BW-AQ-114], the IC50 in test [1] is 3.9 ± 1 µM; in test [2], 2 ± 0.6 µM; in test [3] it was 10.2 ± 2.26 µM; in test [4], 0.284 ± 0.021 µM; in test [6] it was 0.84 ± 0.36 µM; in test [7], greater than 12.5 µM.
As to `C=CCOc1cccc2c1C(=O)c1c(OCC=C)cc(NC(=O)CN=[N+]=[N-])cc1C2=O` [BW-AQ-164], the IC50 in test [1] was greater than 50 µM; in test [2] it was greater than 50 µM; in test [3], greater than 50 µM; in test [4] it was greater than 25 µM; in test [5] it was greater than 25 µM; in test [6], greater than 25 µM. For the same molecule, the concentration for half-maximal inhibition (IC50) in test [7] was greater than 50 µM.
With `C=CCOC(=O)c1cc(OCC=C)c2c(c1)C(=O)c1cccc(OCC=C)c1C2=O` [BW-AQ-152], the IC50 in test [1] is 27.6 µM; in test [2], 12.5 µM; in test [3], 22.5 µM; in test [4] it was greater than 25 µM; in test [5], greater than 25 µM; in test [6], greater than 25 µM. In test [7], the IC50 was determined as 29.3 µM.
Regarding `COc1cccc2c1C(=O)c1c(OC)cc(NC(=O)CCCCl)cc1C2=O` [BW-AQ-174], the IC50 was greater than 50 µM in test [1]; greater than 50 µM in test [3]; greater than 25 µM in test [4]; greater than 25 µM in test [5]; greater than 25 µM in test [6]; greater than 50 µM in test [7].
Take `CCOc1cccc2c1C(=O)c1c(OCC)cc(NC(=O)CCCCl)cc1C2=O` [BW-AQ-179]: the IC50 is 6.25 µM in test [1]; less than 6.25 µM in test [3]; 15.3 µM in test [4]; 17.6 µM in test [5]; 10.7 µM in test [6]; 50 µM in test [7].
Take `COc1cccc2c1C(=O)c1c(OC)cc(N)cc1C2=O` [BW-AQ-145]: the IC50 was greater than 50 µM in test [1]; greater than 50 µM in test [2]; greater than 50 µM in test [3]; greater than 25 µM in test [4]; greater than 25 µM in test [5]; greater than 25 µM in test [6]. For the same molecule, in test [7], the IC50 was greater than 50 µM.
With `COC(=O)c1cc(OCCN=[N+]=[N-])c2c(c1)C(=O)c1cccc(OCCN=[N+]=[N-])c1C2=O` [BW-AQ-120], the IC50 in test [1] was greater than 12.5 µM; in test [2], roughly 50 µM; in test [3] it was greater than 50 µM; in test [4], greater than 1.6 µM; in test [6], greater than 6.25 µM; in test [7], greater than 12.5 µM.
Regarding `COCC(=O)Nc1cc(OC)c2c(c1)C(=O)c1cccc(OC)c1C2=O` [BW-AQ-170], the IC50 in test [1] is greater than 50 µM; in test [3] it was greater than 50 µM; in test [4], greater than 25 µM; in test [5], greater than 25 µM; in test [6] it was greater than 25 µM; in test [7], greater than 50 µM.
Consider `COc1cccc2c1C(=O)c1c(OC)cc(NC(=O)CCCl)cc1C2=O` [BW-AQ-173], for which the IC50 is 50 µM in test [1]; 50 µM in test [3]; greater than 25 µM in test [4]; 25 µM in test [5]; greater than 25 µM in test [6]; greater than 50 µM in test [7].
Consider `C=CCOc1cccc2c1C(=O)c1c(OCC=C)cc(C(=O)O)cc1C2=O` [BW-AQ-153], for which the IC50 in test [1] is greater than 50 µM; in test [2] it was greater than 50 µM; in test [3] it was greater than 50 µM; in test [4], greater than 25 µM; in test [5], greater than 25 µM; in test [6], greater than 25 µM. The molecule also showed an IC50 in test [7] greater than 50 µM.
For the molecule `CCCOC(=O)c1cc(OCCC)c2c(c1)C(=O)c1cccc(OCCC)c1C2=O` [BW-AQ-147], the IC50 is greater than 50 µM in test [1]; greater than 50 µM in test [3]; greater than 25 µM in test [4]; greater than 25 µM in test [5]; greater than 25 µM in test [6]; greater than 50 µM in test [7].
`C=CCOc1cccc2c1C(=O)c1c(OCC=C)cc(N)cc1C2=O` [BW-AQ-155]: the IC50 was roughly 50 µM in test [1]; greater than 50 µM in test [2]; 12.5 µM in test [3]; greater than 25 µM in test [4]; greater than 25 µM in test [5]; greater than 25 µM in test [6]. Moreover, in test [7], the IC50 is greater than 50 µM.
`COc1cccc2c1C(=O)c1c(OC)cc(NC(C)=O)cc1C2=O` [BW-AQ-134]: the IC50 in test [1] was greater than 50 µM; in test [2], greater than 50 µM; in test [3], greater than 50 µM; in test [4], greater than 1.6 µM; in test [6] it was greater than 6.25 µM; in test [7], greater than 50 µM.
As to `COc1cccc2c1C(=O)c1c(OC)cc(NC(=O)C(F)F)cc1C2=O` [BW-AQ-171], the IC50 is greater than 50 µM in test [1]; 50 µM in test [3]; greater than 25 µM in test [4]; greater than 25 µM in test [5]; greater than 25 µM in test [6]; greater than 50 µM in test [7].
Consider `COc1cccc2c1C(=O)c1c(OC)cc(NS(=O)(=O)CCl)cc1C2=O` [BW-AQ-138], for which the IC50 in test [1] is greater than 50 µM; in test [2] it was greater than 50 µM; in test [3] it was greater than 50 µM; in test [4], greater than 1.6 µM; in test [6] it was greater than 6.25 µM; in test [7], greater than 50 µM.
Regarding `COc1cccc2c1C(=O)c1c(OC)cc(NC(=O)C(F)(F)F)cc1C2=O` [BW-AQ-132], the IC50 in test [1] is greater than 50 µM; in test [2], greater than 50 µM; in test [3], greater than 50 µM; in test [4], greater than 1.6 µM; in test [6], greater than 6.25 µM; in test [7] it was greater than 12.5 µM.
Regarding `COc1cccc2c1C(=O)c1c(OC)cc(NC(=O)CC#N)cc1C2=O` [BW-AQ-172], the IC50 in test [1] is greater than 50 µM; in test [3] it was less than 6.25 µM; in test [4], greater than 25 µM; in test [5] it was greater than 25 µM; in test [6], greater than 25 µM; in test [7], greater than 50 µM.

Usually IC50 stands for the concentration that inhibits the measured activity by half.
